In experiment [1] the target is Amyloid-beta(1-40) binding to heparin (HS-GAG) (Homo sapiens, UniProt P05067). The experiment is described as follows: Inhibition of Amyloid-beta(1-40) binding to immobilized heparin-BSA (ELISA). Details: species or system porcine. To be noted: for pIC50: co-incubation on heparin-BSA plates; for inhibition at 30 µM: read-out: Abeta40/Heparin Activity (% inhibition class). As for the experimental part: (§1) Porcine intestinal mucosa heparin conjugated to Bovine Serum Albumin (Heparin-BSA) was prepared as described (Najjam, S. et al. 1997, Cytokine 12, 1013-1022). Heparin is a sulfated HS-GAG and is commonly used as a HS-GAG in biochemical and binding assays (Lindahl, U. and Kjellen, L. (2013) ibid). Heparin-BSA at 0.01 mg/ml in Phosphate Buffered Saline (PBS; pH 7.4) was added to a 96 well polystyrene ELISA plate (NUNC Cat. No. 449824; 100 μl per well) and incubated Over Night (ON) at 4 degrees Celsius. For negative controls, ELISA plates were coated with BSA instead of Heparin-BSA, using the same procedure. Following the incubation, the plate was washed consecutively, by immersion, with de-ionized water and PBS (pH 7.4). The ELISA plate was then blocked with nonfat milk (2%, 200 μl per well) for 2 hours at Room Temperature (RT) with gentle shaking. Following blocking, the plate was washed with de-ionized water then PBS (pH 7.4). GBAPs were dissolved and diluted in PBS (pH 6.5, supplemented with 0.1% BSA) at desired concentrations, added to the ELISA plates containing immobilized Heparin-BSA (100 μl per well) and incubated for 2 hours at RT with gentle shaking. Following incubation, the plate was washed with de-ionized water and three times with PBS (pH 6.5) plus Tween. Bound GBAP was detected by a monoclonal antibody specific for that GBAP, followed by incubation with secondary antibody conjugated to horseradish peroxidase (HRP). Antibody was diluted in PBS (pH 6.5 supplemented with 1% BSA). Following each incubation with antibody, the plate was washed with de-ionized water and three times with PBS (pH 6.5) wash buffer containing 0.1% Tween. The peroxidase substrate chromogen, TMB (Dako Cat. No. S1599) was added (100 μl per well) to the ELISA plate and incubated at room temperature. After 5 minutes ELISA Stop Solution (hydrochloric acid 1N, sulfuric acid 3N) was added (100 μl per well) to stop the peroxidase catalyzed colorimetric reaction. The Optical Density of the samples was measured at 450 nm using an ELISA plate reader (BioTek Synergy H1). Following color development, the % inhibition compared to control (BSA-coated plates) was determined. IC-50s were calculated using GraphPad Prism software.
Amyloid-beta(1-40) binding to heparin (HS-GAG), sequence (P05067 672-711): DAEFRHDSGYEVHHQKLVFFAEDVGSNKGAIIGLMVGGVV
The assay was performed as described in Example 43, with the following modifications. Following to coating the plates with Heparin-BSA, plates were washed as described. The compounds were dissolved in DMSO at 10 mM final concentration and further diluted prior to assay. DMSO concentration in the screening well was up to 2%. Individual compounds were co-incubated with Beta-amyloid peptides on plates containing immobilized heparin. Beta-amyloid (1-42) was purchased from rPeptide (Cat. No. A1163) and used to prepare oligomers according to Stine et al., 2003 (J Biol Chem. 278(13):11612-22) as follows. 1,1,1,3,3,3-Hexafluoro-2-propanol- (HFIP; Sigma Cat. No. 105228)-treated Beta amyloid (1-42) was dissolved in dry DMSO (Sigma Cat. No. D2650) to 5 mM concentration. Dissolved Beta amyloid (1-42) was then diluted to 100 μM in ice-cold cell culture medium (phenol red-free Ham's F-12; Caisson Labs, Cat. No. HFL05), followed immediately by vortexing for 30 seconds, and incubating at 4 degrees Celsius for 24 h. Resulting Beta amyloid (1-42) oligomers were centrifuged at 12,000 rpm for 10 min at 4 degree Celsius to remove aggregates. Oligomers were then quickly frozen and kept in aliquots at −80 degrees Celsius. Beta-amyloid (1-40) from rPeptide (Cat No. A1153) was dissolved in DMSO, quickly frozen and kept in aliquots at −80 degrees Celsius. Beta-amyloid (1-42) oligomers or Beta-amyloid (1-40) diluted in PBS (pH 6.5, supplemented with BSA, 0.1%) were added to the ELISA plate (100 μl per well) and incubated for 2 hours at RT with gentle shaking. Following the incubation, the plate was washed with de-ionized water and three times with PBS (pH 6.5) plus Tween. […]

For experiment [2], the target named is Tau binding to heparin (HS-GAG) (Homo sapiens, UniProt P10636). As to the kind of experiment: Inhibition of Tau binding to immobilized heparin-BSA (ELISA). Details: species or system porcine. Particulars: for inhibition at 30 µM: read-out: Tau/Heparin Activity (% inhibition class). On the procedure:
as §1
The assay was performed as described in Example 43, with the following modifications. Following to coating the plates with Heparin-BSA, plates were washed as described. The compounds were dissolved in DMSO at 10 mM final concentration and further diluted prior to assay. DMSO concentration in the screening well was up to 2%. Individual compounds were co-incubated with Tau on plates containing immobilized heparin. Tau purchased from rPeptide (Cat. No. T1001) was dissolved in DMSO (Sigma Cat. No. D2650), quickly frozen and kept in aliquots at −80 degrees Celsius. Tau dissolved in PBS (pH 6.5, supplemented with BSA, 0.1%) was added to the ELISA plate (100 μl per well) and incubated for 2 hours at RT with gentle shaking. Following the incubation, the plate was washed with de-ionized water and three times with PBS (pH 6.5) plus Tween. Bound Tau was detected by anti-Tau Monoclonal Antibody D-8 (Santa Cruz Cat. No. sc-166060), followed by secondary anti-IgG antibody conjugated to HRP (R&D System, Cat. No. HAF007). Following to color development with TMB, as described in Example 43, the Optical Density of the samples was measured at 450 nm using an ELISA plate reader. Following color development, the % inhibition compared to control (no compound, DMSO control) for every compound was determined.
An example of inhibition curve is shown in FIG. 3 for Inhibitor Compounds 3 and 6. As described in Example 43, Heparin in the form of Heparin-BSA conjugate is used as a source of HS-GAG. For each compound IC-50 value in Tau—heparin-BSA binding assay is shown in […]. In some cases IC-50 was not measured and […] at 30 μM compound concentration is shown instead. […]
Background: An ELISA detects its analyte on a solid surface through an enzyme-linked reagent.

Setting [3] is: Abeta(1-40), read-out: Abeta40/Heparin Activity (IC-50).
The mark [4] stands for this setting: Tau, heparin-BSA, read-out: Tau/Heparin Activity (IC-50).
Where [5] appears, read: Abeta40/Heparin Activity (IC-50), Abeta(1-40).
Where [6] appears, read: 30 μM compound, Tau, heparin-BSA.
[7] abbreviates: Tau/Heparin Activity (IC-50), Tau, heparin-BSA.

pIC50: −log10 of the molar value. Where a name gives a salt, the structure may show the parent alone. Read-outs that look alike come from different tables or passages of the source.

Tau binding to heparin (HS-GAG), sequence (P10636 with tags, fused parts or gaps): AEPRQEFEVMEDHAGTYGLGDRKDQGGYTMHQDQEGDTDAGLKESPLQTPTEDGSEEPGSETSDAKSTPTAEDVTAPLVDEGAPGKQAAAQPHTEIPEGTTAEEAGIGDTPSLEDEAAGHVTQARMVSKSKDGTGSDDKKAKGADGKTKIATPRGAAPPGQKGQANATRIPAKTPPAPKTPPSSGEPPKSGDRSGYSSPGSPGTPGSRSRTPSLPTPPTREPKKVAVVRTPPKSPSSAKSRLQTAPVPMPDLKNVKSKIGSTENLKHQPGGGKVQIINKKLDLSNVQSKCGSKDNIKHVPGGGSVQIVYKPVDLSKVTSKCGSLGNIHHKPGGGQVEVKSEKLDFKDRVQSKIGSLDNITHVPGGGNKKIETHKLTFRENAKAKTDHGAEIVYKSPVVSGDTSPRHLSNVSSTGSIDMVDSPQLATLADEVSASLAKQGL

In the case of `C/C(=N\Nc1ncnc2cc(F)ccc12)c1ccc(-n2cnc(C)c2C)nc1` [Compound 21, (E)-4-(2-(1-(6-(4,5-dimethyl-1H-imidazol-1-yl)pyridin-3-yl)ethylidene)hydrazineyl)-7-fluoroquinazoline], the pIC50 in experiment [1] (setting [3]) was 5.13; in experiment [2] (setting [4]), 4.09.

As for `C/C(=N\Nc1ncnc2cc(Cl)ccc12)c1ccc(-n2cc(C)nc2C)nc1` [Compound 18, (E)-7-chloro-4-(2-(1-(6-(2,4-dimethyl-1H-imidazol-1-yl)pyridin-3-yl)ethylidene)hydrazineyl)quinazoline phosphoric acid salt], the pIC50 in experiment [1] (setting [3]) was 5.48; in experiment [2] (setting [4]) it was 4.87.

Turning to `C[n+]1ccn(-c2ccc(Nc3ncnc4cc(Cl)ccc34)cn2)c1` [Compound 43, 1-(5-((7-chloroquinazolin-4-yl)amino)pyridin-2-yl)-3-methyl-1H-imidazol-3-ium iodide phosphoric acid salt], the inhibition at 30 µM in experiment [1] and in experiment [2] was below 30% throughout.

In the case of `O=S1(=O)CCN(Cc2ccc(/C=N/Nc3ccnc4cc(F)ccc34)cc2)CC1` [Compound 10, (E)-4-(4-((2-(7-fluoroquinolin-4-yl)hydrazono)methyl)benzyl)thiomorpholine 1,1-dioxide], in experiment [1] (setting [5]), the pIC50 was 4.45. In addition, the inhibition at 30 µM in experiment [2] (setting [6]) is below 30%.

`C/C(=N\Nc1ncnc2cc(Cl)ccc12)c1ccc(-n2cnc(C)c2C)nc1` [Compound 16, 7-chloro-4-(2-(1-(6-(4,5-dimethyl-1H-imidazol-1-yl)pyridin-3-yl)ethylidene)hydrazineyl)quinazoline phosphate]: the pIC50 is 5.36 in experiment [1] (setting [5]) and 5.41 in experiment [2] (setting [7]).

As to `COc1cc2nccc(N/N=C/c3ccc(-n4ccnc4)c(OC)c3)c2cc1OC` [Compound 13, (E)-4-(2-(4-(1H-imidazol-1-yl)-3-methoxybenzylidene)hydrazineyl)-6,7-dimethoxyquinoline phosphate], the inhibition at 30 µM in experiment [1] and in experiment [2] was below 30% throughout.

On to `Cc1ncn(-c2ccc(/C=N/Nc3ccnc4cc(Cl)ccc34)cc2)c1C` [Compound 2, (E)-7-chloro-4-((E)-(4-(4,5-dimethyl-1H-imidazol-1-yl)benzylidene)hydrazono)-1,4-dihydroquinoline], for which the pIC50 was 4.64 in experiment [1] (setting [5]) and 5.35 in experiment [2] (setting [7]).

`Cc1ncn(-c2ccc(/C=N\Nc3ncnc4cc(Cl)ccc34)cn2)c1C` [Compound 15, 7-chloro-4-(2-((6-(4,5-dimethyl-1H-imidazol-1-yl)pyridin-3-yl)methylene)hydrazineyl)quinazoline hydrochloride]: the pIC50 in experiment [1] (setting [5]) was 4.64; in experiment [2] (setting [7]), 4.17.

Consider `CC(=NNc1ncnc2cc(Cl)ccc12)c1ccnc(-n2cnc(C)c2C)c1` [Compound 28, 7-chloro-4-(2-(1-(2-(4,5-dimethyl-1H-imidazol-1-yl)pyridin-4-yl)ethylidene)hydrazineyl)quinazoline], for which the pIC50 in experiment [1] (setting [3]) is 5.51; in experiment [2] (setting [4]) it was 4.21.

Turning to `COc1ccc2c(NN=Cc3ccc(-n4ccnc4)c(C)c3)ccnc2c1` [Compound 12, 4-(2-(4-(1H-imidazol-1-yl)-3-methylbenzylidene)hydrazineyl)-7-methoxyquinoline], the pIC50 was 4.75 in experiment [1] (setting [5]) and 4.88 in experiment [2] (setting [7]).

Turning to `C[n+]1ccc(/C=N\Nc2ccnc3ccccc23)cc1` [Compound 9, (Z)-1-methyl-4-((2-(quinolin-4-yl)hydrazono)methyl)pyridin-1-ium iodide], the inhibition at 30 µM in experiment [1] (30 μM compound, Abeta(1-40), heparin-BSA) is below 30%; in experiment [2] (setting [6]), below 30%.

For the molecule `C/C(=N\Nc1ncnc2cc(Cl)ccc12)c1ccc(-n2cncn2)nc1` [Compound 32, (E)-4-(2-(1-(6-(1H-1,2,4-triazol-1-yl)pyridin-3-yl)ethylidene)hydrazineyl)-7-chloroquinazoline], the inhibition at 30 µM in experiment [2] is below 30%.

Consider `C/C(=N\Nc1ncnc2cc(Cl)ccc12)c1cccc(CN(C)C)c1` [Compound 29, 1-(3-(1-(2-(7-chloroquinazolin-4-yl)hydrazineylidene)ethyl)phenyl)—N,N-dimethylmethanamine], for which, in experiment [2] (setting [7]), the pIC50 is 4.49.

The values above are taken from patent US20240398783A1, “Compounds and Pharmaceutical Compositions Comprising Inhibitors of Amyloid Peptide Interactions with Glycosaminoglycans, Methods of Treatment and Use Thereof” (Gismo Therapeutics, Inc., priority 2021, published 2024).
